According to patent US12435061B2 (priority 2020, dated 2025):
≈ marks a conversion by molar mass, not a printed value. Structures can show the parent of a compound that is named as a salt. Where two headings read alike, the source gives them in different places.

Key:
[1] = target: hTRPV3 (Homo sapiens (Human), UniProt Q8NET8); test: Whole-cell patch clamp, hTRPV3 Phase 1 / Phase 2 currents; type: cell-based
Outline: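 Whole-cell recordings on induced TRPV3 cells replated on coverslips, held at −40 mV with 400 ms ramps from −120 to +100 mV every 5 s; currents read at −80 and +80 mV. Ringer's external solution; current activated by heating to ≥28 °C or 20 μM 2-APB.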

[2] = Aqueous solubility assay in Normal Ringer Solution; conditions: Normal Ringer Solution; for solubility at 40 min: saline or isotonic, kinetic from dmso stock
Description: Following vortex and incubation for a sufficient time (e.g. 40 minutes at room temperature), solutions were filtered, quenched with acetonitrile, and analyzed by Liquid Chromotography. Solubility Limits were determined by comparison to a standard curve.

[3] = Phase 1 current, inward, whole-cell patch clamp, read-out: hTRPV3 Patch P1 Inwd
[4] = Phase 1 current, read-out: hTRPV3 (nM) (Phase 1)
[5] = Phase 2 current, inward, whole-cell patch clamp, read-out: hTRPV3 Patch P2 Inwd
[6] = Phase 2 current, read-out: hTRPV3 (nM) (Phase 2)
[7] = Phase 1 current, human TRPV3, read-out: hTRPV3 (nM) Phase 1

Sequence of hTRPV3 (Q8NET8 whole entry): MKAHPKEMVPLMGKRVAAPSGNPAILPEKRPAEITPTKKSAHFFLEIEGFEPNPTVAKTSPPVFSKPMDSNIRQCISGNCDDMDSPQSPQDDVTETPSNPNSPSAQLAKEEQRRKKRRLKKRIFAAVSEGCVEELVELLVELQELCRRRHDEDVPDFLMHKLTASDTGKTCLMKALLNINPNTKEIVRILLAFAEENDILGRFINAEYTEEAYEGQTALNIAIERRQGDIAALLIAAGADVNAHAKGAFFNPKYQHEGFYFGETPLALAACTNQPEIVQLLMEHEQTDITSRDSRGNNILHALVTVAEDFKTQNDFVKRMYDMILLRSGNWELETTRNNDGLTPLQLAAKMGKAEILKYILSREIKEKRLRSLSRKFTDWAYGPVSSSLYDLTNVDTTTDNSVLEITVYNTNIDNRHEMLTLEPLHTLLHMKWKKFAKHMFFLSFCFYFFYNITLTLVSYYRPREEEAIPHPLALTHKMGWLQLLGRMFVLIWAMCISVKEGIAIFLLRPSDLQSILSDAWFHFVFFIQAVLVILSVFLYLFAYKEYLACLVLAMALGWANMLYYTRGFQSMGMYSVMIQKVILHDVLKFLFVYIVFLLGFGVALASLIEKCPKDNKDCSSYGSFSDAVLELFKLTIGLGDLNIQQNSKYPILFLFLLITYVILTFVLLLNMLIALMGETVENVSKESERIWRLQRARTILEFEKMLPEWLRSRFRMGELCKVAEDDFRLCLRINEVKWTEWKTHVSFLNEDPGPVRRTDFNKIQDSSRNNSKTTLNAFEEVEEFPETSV

Molecule | IC50 [1, 3] | IC50 [1, 7] | other results
Cl.NC(=O)c1cc(-c2cccnc2)ccc1N1CC[C@@H](Oc2ncccc2Cl)C1 [Compound 1-74, (R)-2-(3-(3-chloropyridin-2-yloxy)pyrrolidin-1-yl)-5-(pyridin-3-yl)benzamide hydrochloride] |  |  | IC50 ([1]; hTRPV3 Patch P2 Inwd (nM)): > 1000 nM; IC50 ([1]; read-out: hTRPV3 (nM) (Phase 2)): ~5040 nM; solubility at 40 min [2]: > 13.5 µM
NC(=O)c1cc(-c2ccccc2)ccc1N1CC[C@@H](Oc2ncccc2Cl)C1 [Compound 1-75, (R)-4-(3-(3-chloropyridin-2-yloxy)pyrrolidin-1-yl)biphenyl-3-carboxamide] | > 1000 nM |  | IC50 [1, 4]: ~2300 nM; IC50 [1, 5]: 100 to 1000 nM; IC50 [1, 6]: 342 nM; solubility at 40 min [2]: 0.32 µM (≈ 0.126 µg/mL)
CC(C)Oc1ccccc1N1CC[C@H](Oc2ccc3cc(Cl)ccc3n2)C1 [Compound 1-76, (S)-6-chloro-2-(1-(2-isopropoxyphenyl)pyrrolidin-3-yloxy)quinoline] | > 1000 nM |  | IC50 [1, 4]: > 3200 nM; IC50 [1, 5]: > 1000 nM; IC50 [1, 6]: ~4600 nM; Solubility Ringer (nM) ([2]; room temperature): BLQ
NC(=O)c1cc(-c2cccnc2)ccc1N1CC[C@H](Oc2ccc(C(F)(F)F)cn2)C1 [Compound 1-80, (S)-5-(pyridin-3-yl)-2-(3-(5-(trifluoromethyl)pyridin-2-yloxy)pyrrolidin-1-yl)benzamide] | > 1000 nM |  | IC50 [1, 4]: > 3200 nM; IC50 [1, 5]: > 1000 nM; IC50 [1, 6]: ~5900 nM; solubility at 40 min [2]: > 3.3 µM
CC(C)c1ccccc1Oc1ccc(C2CCN(Cc3ncccc3Cl)C2)c(CO)c1 (centres unmarked) [Compound 2-92, (2-(1-((3-chloropyridin-2-yl)methyl)pyrrolidin-3-yl)-5-(2-isopropylphenoxy)phenyl)methanol hydrochloride] | 100 to 1000 nM | 592 nM | 
Cc1cccc(CN2CCC(c3ccc(Oc4ccccc4C(C)C)cc3CO)C2)n1 (centres unmarked) [Compound 2-94, (5-(2-isopropylphenoxy)-2-(1-((6-methylpyridin-2-yl)methyl)pyrrolidin-3-yl)phenyl)methanol hydrochloride] | 100 to 1000 nM | 339 nM | 
CC(C)c1ccccc1Oc1ccc(C2CCN(Cc3cccc(Cl)n3)C2)c(CO)c1 (centres unmarked) [Compound 2-96, (2-(1-((6-chloropyridin-2-yl)methyl)pyrrolidin-3-yl)-5-(2-isopropylphenoxy)phenyl)methanol hydrochloride] | 100 to 1000 nM | 246 nM | 
Cc1cccc(CN2CC(c3ccc(Oc4ccccc4C(C)C)cc3C(N)=O)CC2=O)n1 (centres unmarked) [Compound 2-97, 5-(2-isopropylphenoxy)-2-(1-((6-methylpyridin-2-yl)methyl)-5-oxopyrrolidin-3-yl)benzamide] | > 1000 nM | > 3200 nM | 
CCc1ccccc1Oc1ccc(C2CC(=O)N(Cc3cccc(C)n3)C2)c(C(N)=O)c1 (centres unmarked) [Compound 2-98, 5-(2-ethylphenoxy)-2-(1-((6-methylpyridin-2-yl)methyl)-5-oxopyrrolidin-3-yl)benzamide] | > 1000 nM | > 3200 nM | 
CC(C)c1ccccc1Oc1ccc(C2CC(=O)N(Cc3ccccn3)C2)c(C(N)=O)c1 (centres unmarked) [Compound 2-99, 5-(2-isopropylphenoxy)-2-(5-oxo-1-(pyridin-2-ylmethyl)pyrrolidin-3-yl)benzamide] | > 1000 nM | > 3200 nM | 
CCc1ccccc1Oc1ccc(C2CC(=O)N(Cc3ccccn3)C2)c(C(N)=O)c1 (centres unmarked) [Compound 2-100, 5-(2-ethylphenoxy)-2-(5-oxo-1-(pyridin-2-ylmethyl)pyrrolidin-3-yl)benzamide] | > 1000 nM | > 3200 nM | 
CCc1ccccc1Oc1ccc(C2CC(=O)N(Cc3ccc(Cl)cn3)C2)c(C(N)=O)c1 (centres unmarked) [Compound 2-101, 2-(1-((5-chloropyridin-2-yl)methyl)-5-oxopyrrolidin-3-yl)-5-(2-ethylphenoxy)benzamide] | > 1000 nM | > 3200 nM | 
CC(C)c1ccccc1Oc1ccc(C2CC(=O)N(Cc3ccc(Cl)cn3)C2)c(C(N)=O)c1 (centres unmarked) [Compound 2-102, 2-(1-((5-chloropyridin-2-yl)methyl)-5-oxopyrrolidin-3-yl)-5-(2-isopropylphenoxy)benzamide] | > 1000 nM | ~2150 nM | 
Cc1nccnc1C(=O)N1CCC(c2ccc(-c3ccccc3C3CC3)cc2CO)C1 (centres unmarked) [Compound 2-104, (3-(2′-cyclopropyl-3-(hydroxymethyl)biphenyl-4-yl)pyrrolidin-1-yl)(3-methylpyrazin-2-yl)methanone] | 100 to 1000 nM | 756 nM | 
Cc1cnc(C(=O)N2CCC(c3ccc(-c4ccccc4C4CC4)cc3CO)C2)cn1 (centres unmarked) [Compound 2-106, (3-(2′-cyclopropyl-3-(hydroxymethyl)biphenyl-4-yl)pyrrolidin-1-yl)(5-methylpyrazin-2-yl)methanone] | 10 to 100 nM | 67 nM | 
O=C(c1cnc(Cl)cn1)N1CCC(c2ccc(-c3ccccc3C3CC3)cc2CO)C1 (centres unmarked) [Compound 2-108] | 10 to 100 nM | 12.9 nM | 
Cc1cncc(C(=O)N2CCC(c3ccc(-c4ccccc4C4CC4)cc3CO)C2)n1 (centres unmarked) [Compound 2-109] | 10 to 100 nM | 18.2 nM | 
O=C(c1ccncn1)N1CCC(c2ccc(-c3ccccc3C3CC3)cc2CO)C1 (centres unmarked) [Compound 2-110, (3-(2′-cyclopropyl-3-(hydroxymethyl)biphenyl-4-yl)pyrrolidin-1-yl)(pyrimidin-4-yl)methanone] | 100 to 1000 nM | 197 nM | 
O=C(c1cscn1)N1CCC(c2ccc(-c3ccccc3C3CC3)cc2CO)C1 (centres unmarked) [Compound 2-111, (3-(2′-cyclopropyl-3-(hydroxymethyl)biphenyl-4-yl)pyrrolidin-1-yl)(thiazol-4-yl)methanone] | 100 to 1000 nM | 194 nM | 
O=C(c1cc[nH]n1)N1CCC(c2ccc(-c3ccccc3C3CC3)cc2CO)C1 (centres unmarked) [Compound 2-112, (3-(2′-cyclopropyl-3-(hydroxymethyl)biphenyl-4-yl)pyrrolidin-1-yl)(1H-pyrazol-3-yl)methanone] | 10 to 100 nM | 98 nM | 
CCc1ccccc1-c1ccc(C2CCN(C(=O)C3CCN(C)CC3)C2)c(CO)c1 (centres unmarked) [Compound 2-115] |  | > 3200 nM | 
CC(C)c1ccccc1Oc1ccc(C2CCN(C(=O)Cc3ncccc3Cl)C2)c(CO)c1 (centres unmarked) [Compound 2-117] |  | ~3500 nM | IC50 ([1]; Phase 2 current, human TRPV3, read-out: hTRPV3 (nM) Phase 2): 2620 nM
COC(=O)c1cc(-c2ccccc2C(C)C)ccc1C1CCN(C(=O)C(F)(F)F)C1 (centres unmarked) [Compound 2-120] |  | > 3200 nM | 
O=C(c1cocn1)N1CCC(c2ccc(-c3ccccc3C3CC3)cc2CO)C1 (centres unmarked) [Compound 2-121] |  | 61.2 nM | 
O=C(c1ncccn1)N1CCC(c2ccc(-c3ccccc3C3CC3)cc2CO)C1 (centres unmarked) [Compound 2-122] |  | 202 nM | 
Cc1cc(C(=O)N2CCC(c3ccc(-c4ccccc4C4CC4)cc3CO)C2)no1 (centres unmarked) [Compound 2-123] |  | 62.9 nM | 
O=C(c1csc(Cl)n1)N1CCC(c2ccc(-c3ccccc3C3CC3)cc2CO)C1 (centres unmarked) [Compound 2-124] |  | 20.7 nM | 
(3-(4-(4-chloro-3-ethylpyridin-2-yloxy)-2-(hydroxymethyl)phenyl)pyrrolidin-1-yl)(5-fluoropyridin-2-yl)methanone [Compound 2-43] | > 1000 nM | > 3200 nM | 
(S)-(6-(2-ethylphenoxy)-3-(3-(5-(trifluoromethyl)pyridin-2-yloxy)pyrrolidin-1-yl)pyridin-2-yl)methanol [Compound 1-212] | > 1000 nM |  | IC50 [1, 4]: > 3200 nM
